Test results reported in patent US6458835B2, “Method of inhibiting or treating chemotherapy-induced hair loss” (Bristol-Myers Squibb Company, priority 1997, dated 2002).

What was measured:
C3H mice = assay: Hair growth (hair follicle stimulation) in C3H mouse model, topical application; assay type: in vivo; conditions: for percent of animals showing hair follicle stimulation / time of onset of follicle stimulation: 2% solution topical 1x daily; for time of onset of follicle stimulation: male C3H mice, 5 days per week
Source text: The two enantiomers were compared topically for hair growth in C3H mice.
The C3H mouse is a useful model for studying hair growth. Its usefulness rests with the fact that skin pigmentation of this animal is provided by the melanocytes of the hair follicle and not the epidermis. In the telogen or the resting phase of the hair follicle, the skin is pink. In the earliest phase of anagen or the growth phase, there is sudden graying of the skin and as the anagen phase progresses the skin becomes darker in color. In this study, visual observation was used as an in vivo assay of anagen induction. Furthermore as anagen develops, the skin thickness increases from a thin telogen skin to a measurably thickened anagen skin. Thus, recording the skin color and microscopic thickness of skin from these mice offers a sensitive, quantifiable and convenient method of assessing the phases of hair growth.
Groups of 20, six to seven week old male C3H mice with hair follicles in the resting phase of hair growth were used. At this stage in their life, the hair follicles remain in the telogen phase for up to 30 days or longer. This provides an adequate window of time to screen drugs. […] This stimulation is manifested by the shortening of the telogen phase of the hair follicle cycle.
Animals were anesthetized with ketamine/rompun (100 mg/Kg and 12 mg/Kg) IP and the hair over a defined dorsal area were closely clipped.
The vehicle employed was ethanol/propylene glycol/water, 60/30/10. Treatment was continued for at least 4-5 weeks.
Animals were observed daily for side effects and changes to the test sites. All observations were documented. Test sites were graded weekly for changes in skin color and hair growth. In this study drug effects were evaluated using the visual observation of skin changing from pink to gray and resulting in hair growth.

Row | IC50 (Vasorelaxant potency) [nM] | melting point [°C] | Compound | onset of action compared to the corresponding enantiomer (C3H mice; C3H mice, versus (S)-enantiomer) | percent of animals showing hair follicle stimulation (C3H mice; by day 11 of treatment) [%] | percent of animals showing hair follicle stimulation (C3H mice; by day 14) [%] | percent of animals showing hair follicle stimulation (C3H mice; by day 28) [%] | time of onset of follicle stimulation (C3H mice) [days] | hair growth promoting ability relative to the (S)-enantiomer (C3H mice; producing hair growth within 11 days of treatment) [times] | incidence of hair follicle stimulation compared to the other enantiomer (C3H mice; throughout the treatment period, versus Example 2-(S)-enantiomer)
1 | 47 ± 17 | 159 to 160 | C[C@@H](NC(=NC#N)Nc1ccc(C#N)cc1)C(C)(C)C [Example 1, (R)-4-[[(Cyanoimino)[(1,2,2-trimethylpropyl)amino]-methyl]amino]benzonitrile] | faster onset of action | 40 | 50 | 85 | 7 | 8 | higher incidence of hair follicle stimulation
2 | 157 ± 35 | 158 to 159 | C[C@H](NC(=NC#N)Nc1ccc(C#N)cc1)C(C)(C)C [Example 2, (S)-4-[[(Cyanoimino)[(1,2,2-trimethylpropyl)amino]-methyl]amino]benzonitrile] | – | 5 | 25 | 65 | 11 | – | –
